Data as given in patent US20190021380A1 (priority 2014, published 2019).
Where two headings read alike, the source gives them in different places.

Experiments:
cat T1R1/T1R3 receptor = cat T1R1/T1R3 receptor (Felis catus, UniProt E3UMS2); test: cell-based; details: for Max resp % of IMP: hek293 cells
Source text: HEK293 cells that stably express T1R3 and inducibly express T1R1 were exposed to nucleotide derivatives alone or in combination with one or more amino acids and/or one or more nucleotides to activate the umami receptor. Activation of the T1R1/T1R3 receptor was detected by a change in intracellular calcium levels using a calcium sensitive fluorescent dye and/or a luminescent reporter system. Cells that express T1R3 but not T1R1 were used as a control. A FLIPR® Tetra or a FlexStation® 3 was used for data capture.

T1R1/T1R3 receptor = T1R1/T1R3 receptor (Felis catus, UniProt E3UMS2); test: cell-based; format: cell-based; details: for Max resp % of Ala +IMP (0.2 mM): relative to Ala; for Max resp ΔF/F +Alanine (20 mM) / Thres (mM) +Alanine (20 mM) / Max resp % of IMP +Alanine (20 mM): in the presence of 20 mM alanine; for Max resp % of IMP +Alanine (20 mM): relative to IMP; for activation of T1R1/T1R3 by the compound alone: in words
Source text: HEK293 cells that stably express T1R3 and inducibly express T1R1 were exposed to transmembrane compounds alone or in combination with one or more amino acids and/or one or more nucleotides to activate the umami receptor. Activation of the T1R1/T1R3 receptor was detected by a change in intracellular calcium levels using a calcium sensitive fluorescent dye. Cells that express T1R3 but not T1R1 were used as a control. A FLIPR® Tetra or a FlexStation® 3 was used for data capture.
In each experiment, serial dilutions of up to 10 mM of the transmembrane compound were added to the T1R1/T1R3-expressing cells.

[1] = EC50 (mM), + Alanine (20 mM), Table 15
[2] = EC50 (mM) +IMP (0.2 mM), in the presence of 0.2 mM IMP
[3] = compound alone in buffer, read-out: EC50 (mM) +buffer (alone)

| Structure (SMILES) | Max resp ΔF/F +IMP (0.2 mM) (T1R1/T1R3 receptor; in the presence of 0.2 mM IMP) | Thres (mM) +IMP (0.2 mM) (T1R1/T1R3 receptor; in the presence of 0.2 mM IMP) [mM] | Max resp % of Ala +IMP (0.2 mM) (T1R1/T1R3 receptor; in the presence of 0.2 mM IMP) [%] | Max resp ΔF/F +Alanine (20 mM) (T1R1/T1R3 receptor) | Thres (mM) +Alanine (20 mM) (T1R1/T1R3 receptor) [mM] | Max resp % of IMP +Alanine (20 mM) (T1R1/T1R3 receptor) [%] | other results |
| --- | --- | --- | --- | --- | --- | --- | --- |
| NC(=O)c1ncn(C2OC(COP(=O)(O)O)C(O)C2O)c1N (stereo not drawn) | – | – | – | – | – | – | EC50 (cat T1R1/T1R3 receptor; EC50-with Ala (mM)): > 1 mM |
| Nc1ncnc2c1ncn2C1OC(COP(O)(O)=S)C(O)C1O (stereo not drawn) | – | – | – | – | – | – | Activity (cat T1R1/T1R3 receptor): active; Thres (cat T1R1/T1R3 receptor): 0.003 mM; Max resp % of IMP (cat T1R1/T1R3 receptor): 128.4 % of IMP |
| NC1NC(=O)c2ncn([C@H]3O[C@@H](COP(=O)(O)O)[C@H](O)[C@@H]3O)c2N1 (stereo partly drawn) | – | – | – | – | – | – | EC50 (cat T1R1/T1R3 receptor; in the presence of 20 mM alanine, read-out: EC50-with Ala): 0.03 mM |
| O=C(Nc1ncnc2c1ncn2[C@@H]1O[C@H](COP(=O)(O)O)[C@@H](O)[C@H]1O)c1ccccc1 | – | – | – | – | – | – | Thres (cat T1R1/T1R3 receptor): 0.3 mM; EC50 (cat T1R1/T1R3 receptor; [1]): > 1 mM; Max resp % of IMP (cat T1R1/T1R3 receptor): 105.6 % of IMP |
| O=P(O)(O)OCC1OC(n2cnc3c(Nc4ccccc4)ncnc32)C(O)C1O (stereo not drawn) | – | – | – | – | – | – | EC50 (cat T1R1/T1R3 receptor; EC50-with Ala (mM), in the presence of 20 mM alanine): > 1 mM |
| O=c1ccn(C2OC(COP(=O)(O)N3CCOCC3)C(O)C2O)c(=O)[nH]1 (stereo not drawn) | – | – | – | – | – | – | EC50 (cat T1R1/T1R3 receptor; [1]): > 3 mM |
| O=C(Nc1ccccc1Br)N[C@@H]1c2ccccc2C[C@@H]1O (stereo in doubt) [1-(2-bromophenyl)-3-((1R,2S)-2-hydroxy-2,3-dihydro-1H-inden-1-yl)urea] | 0.378 | 3 | 44.9 | 0.3 | 3 | 33.0 | – |
| O=C(CN1C(=O)C(=O)N(Cc2ccccc2)C1=O)c1ccccc1 [1-benzyl-3-(2-oxo-2-phenylethyl)imidazolidine-2,4,5-trione] | 1.140 | 0.08 | 135.7 | 1.3 | 1 | 127.6 | – |
| CSc1ccc(-c2nnn(Cc3ccccn3)n2)cc1 [2-((5-(4-(methylthio)phenyl)-2H-tetrazol-2-yl)methyl)pyridine] | 0.678 | 0.1575 | 80.7 | – | – | – | – |
| CCC(CC)NC(=O)c1ccc(OC)c(OC)c1 [3,4-dimethoxy-N-(pentan-3-yl)benzamide] | 0.9975 | 0.5 | 81.0 | 0.545 | 0.3 | 43.9 | – |
| CCC(CC)NC(=O)c1ccc(C)c(C)c1 [3,4-dimethyl-N-(pentan-3-yl)benzamide] | 1.5475 | 0.525 | 125.7 | 1.2150 | 3 | 97.8 | – |
| COc1ccc(C(=O)NC(C)c2ccccc2)cc1C (stereo not drawn) [4-methoxy-3-methyl-N-(1-phenylethyl)benzamide] | 1.1775 | 0.35 | 95.6 | 0.51 | 3 | 41.0 | – |
| CCCC(C)NC(=O)c1ccc(OC)c(C)c1 (stereo not drawn) [4-methoxy-3-methyl-N-(pentan-2-yl)benzamide] | 1.5875 | 0.025 | 128.9 | 1.5650 | 0.050 | 126.0 | – |
| CCC(CC)NC(=O)c1ccc(Br)o1 [5-bromo-N-(pentan-3-yl)furan-2-carboxamide] | 1.8425 | 0.3 | 149.6 | 1.575 | 1 | 126.8 | – |
| CCCC(C)NC(=O)/C=C/c1ccc(OC)c(OC)c1 (stereo not drawn) [(E)-3-(3,4-dimethoxyphenyl)-N-(pentan-2-yl)acrylamide] | 1.07 | 0.55 | 86.9 | 0.4375 | 1 | 35.2 | EC50 (T1R1/T1R3 receptor): > 10 mM; EC50 (T1R1/T1R3 receptor; [2]): 2.2 mM; EC50 (T1R1/T1R3 receptor; [3]): > 10 mM |
| COc1ccc(/C=C/C(=O)NC2CCCCC2C)cc1 (stereo not drawn) [(E)-3-(4-methoxyphenyl)-N-(2-methylcyclohexyl)acrylamide] | 1.7725 | 0.3 | 144.0 | 0.785 | 3 | 63.2 | – |
| CCC(CC)NC(=O)/C=C/c1ccc(OC)cc1 [(E)-3-(4-methoxyphenyl)-N-(pentan-3-yl)acrylamide] | 1.443 | 0.0375 | 171.7 | 0.7 | 0.148 | 64.1 | – |
| COC(=O)C(NC(=O)/C=C/c1cccs1)C(C)C (stereo not drawn) [(E)-methyl 3-methyl-2-(3-(thiophen-2-yl)acrylamido)butanoate] | 0.7375 | 1 | 59.9 | 0.1175 | 10 | 9.5 | – |
| O=C(NCCc1ccccc1)C(=O)NCc1cccnc1 [N1-phenethyl-N2-(pyridin-3-ylmethyl)oxalamide] | 0.7625 | 0.1 | 61.9 | 0.3750 | 1 | 30.2 | – |
| CC1CCCC(NC(=O)c2ccc3c(c2)OCO3)C1C (stereo not drawn) [N-(2,3-dimethylcyclohexyl)benzo[d][1,3]dioxole-5-carboxamide] | 1.175 | 0.275 | 95.4 | 0.225 | 3 | 18.1 | – |
| COc1cc(C(=O)NC(C(N)=O)c2ccccc2)cc(Cl)c1OC (stereo not drawn) [N-(2-amino-2-oxo-1-phenylethyl)-3-chloro-4,5-dimethoxybenzamide] | 0.415 | 0.17 | 49.4 | – | – | – | activation of T1R1/T1R3 by the compound alone (T1R1/T1R3 receptor): failed to activate T1R1/T1R3 alone |
| CCCC(CCC)C(=O)Nc1ccc2c(c1)OCO2 [N-(benzo[d][1,3]dioxol-5-yl)-2-propylpentanamide] | 0.908 | 0.0675 | 108.0 | – | – | – | activation of T1R1/T1R3 by the compound alone (T1R1/T1R3 receptor): agonist of T1R1/T1R3 alone |
| CCC(CC)NC(=O)c1ccc2c(c1)OCCO2 [N-(pentan-3-yl)-2,3-dihydrobenzo[b][1,4]dioxine-6-carboxamide] | 0.8725 | 0.075 | 70.9 | 0.3125 | 0.3 | 25.2 | – |
| CCOC(=O)C(NC(=O)c1ccc2c(c1)OCO2)C(C)C (stereo not drawn) [ethyl 2-(benzo[d][1,3]dioxole-5-carboxamido)-3-methylbutanoate] | 0.65 | 1 | 52.8 | 0.3175 | 10 | 25.6 | EC50 (T1R1/T1R3 receptor): > 10 mM; EC50 (T1R1/T1R3 receptor; [2]): > 3 mM; EC50 (T1R1/T1R3 receptor; [3]): > 10 mM |
